Experimental data from US8076488B2, “Bicyclic urea derivatives useful in the treatment of cancer and other disorders” (Bayer Healthcare LLC, priority 2003, dated 2011).
Where a name gives a salt, the structure may show the parent alone.

Target: T1, c-Raf kinase (Lck-activated c-Raf, Raf-1) (Homo sapiens, UniProt P04049)
T1 construct: GST-c-Raf (from amino acid 302 to amino acid 648); made in house; host or cells: Sf9 insect cells (baculovirus; co-infection with full-length Lck)
Assay: c-Raf (Raf-1) biochemical assay (radioactive filtermat assay, MEK-1 substrate)
Conditions: at 1 micromolar compound; 5 μM ATP, 32° C., 1 hour
Procedure: Biological Tests c-Raf (Raf-1) Biochemical Assay Purification of Proteins Used in the Assay
The c-Raf biochemical assay was performed with a c-Raf enzyme that was activated (phosphorylated) by Lck kinase. Lck-activated c-Raf (Lck/c-Raf) was produced in Sf9 insect cells by co-infecting cells with baculoviruses expressing, under the control of the polyhedrin promoter, GST-c-Raf (from amino acid 302 to amino acid 648) and Lck (full-length). Both baculoviruses were used at the multiplicity of infection of 2.5 and the cells were harvested 48 hours post infection.
MEK-1 protein was produced in Sf9 insect cells by infecting cells with the baculovirus expressing GST-MEK-1 (full-length) fusion protein at the multiplicity of infection of 5 and harvesting the cells 48 hours post infection. Similar purification procedure was used for GST-c-Raf 302-648 and GST-MEK-1.
Transfected cells were suspended at 100 mg of wet cell biomass per mL in a buffer containing 10 mM sodium phosphate, 140 mM sodium chloride pH 7.3, 0.5% Triton X-100 and the protease inhibitor cocktail. The cells were disrupted with Polytron homogenizer and centrifuged 30,000 g for 30 minutes. The 30,000 g supernatant was applied onto GSH-Sepharose. The resin was washed with a buffer containing 50 mM Tris, pH 8.0, 150 mM NaCl and 0.01% Triton X-100. The GST-tagged proteins were eluted with a solution containing 100 mM Glutathione, 50 mM Tris, pH 8.0, 150 mM NaCl and 0.01% Triton X-100. The purified proteins were dialyzed into a buffer containing 20 mM Tris, pH 7.5, 150 mM NaCl and 20% Glycerol.
Biochemical Assay Protocol and Results
The compounds were serially diluted in DMSO using three-fold dilutions to stock concentrations ranging typically from 50 μM to 20 nM (final concentrations in the assay range from 1 μM to 0.4 nM). The c-Raf biochemical assay was performed as a radioactive filtermat assay in 96-well Costar polypropylene plates (Costar 3365). The plates were loaded with 75 μL solution containing 50 mM HEPES pH 7.5, 70 mM NaCl, 80 ng of Lck/c-Raf and 1 μg MEK-1. Subsequently, 2 μL of the serially diluted individual compounds were added to the reaction, prior to the addition of ATP. The reaction was initiated with 25 μL ATP solution containing 5 μM ATP and 0.3 μCi [33P]-ATP. The plates were sealed and incubated at 32° C. for 1 hour. The reaction was quenched with the addition of 50 μl of 4% Phosphoric Acid and harvested onto P30 filtermats (PerkinElmer) using a Wallac Tomtec Harvester. Filtermats were washed with 1% Phosphoric Acid first and deinonized H2O second. The filters were dried in a microwave, soaked in scintillation fluid and read in a Wallac 1205 Betaplate Counter (Wallac Inc., Atlanta, Ga., U.S.A.). The results were expressed as percent inhibition. % Inhibition=[[…]]×100 where • Tib=(counts per minute with inhibitor)−(background) • Ti=(counts per minute without inhibitor)−(background)

T1 sequence (P04049 302-648): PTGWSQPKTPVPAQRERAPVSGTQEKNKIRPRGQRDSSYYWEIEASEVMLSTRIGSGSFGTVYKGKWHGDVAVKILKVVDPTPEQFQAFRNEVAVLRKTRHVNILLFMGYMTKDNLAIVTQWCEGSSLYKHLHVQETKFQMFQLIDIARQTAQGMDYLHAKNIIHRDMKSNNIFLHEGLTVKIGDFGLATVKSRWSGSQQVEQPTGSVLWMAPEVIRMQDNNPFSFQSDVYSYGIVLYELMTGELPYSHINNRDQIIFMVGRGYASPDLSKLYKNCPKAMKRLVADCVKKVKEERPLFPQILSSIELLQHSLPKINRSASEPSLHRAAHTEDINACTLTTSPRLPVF

SMILES	inhibition at 1 µM
COC(=O)c1cc(Oc2cccc(NC(=O)Nc3ccc4c(cnn4C)c3)c2)ccn1 [Example 2, Methyl 4-[3-({[(1-methyl-1H-indazol-5-yl)amino]carbonyl}amino)phenoxy]-pyridine-2-carboxylate]	> 40%
CC(=O)c1cc(Oc2ccc(NC(=O)Nc3ccc4c(cnn4C)c3)cc2)ccn1 [Example 3, N-{4-[(2-acetylpyridin-4-yl)oxy]phenyl}-N′-(1-methyl-1H-indazol-5-yl)urea]	> 40%
CNC(=O)c1cc(Oc2ccc(NC(=O)Nc3ccc4nc(C)oc4c3)cc2)ccn1 [Example 6]	> 40%
CNC(=O)c1cc(Oc2ccc(NC(=O)Nc3cccc4c3CCC4)cc2)ccn1 [Example 7]	> 40%
CNC(=O)c1cc(Oc2ccc(NC(=O)Nc3ccc4nn(C)cc4c3)cc2)ccn1 [Example 9]	> 40%
CNC(=O)c1cc(Oc2ccc(NC(=O)Nc3ccc4c(c3)N(C(C)=O)CC4)cc2)ccn1 [Example 10]	> 40%
CNC(=O)c1cc(Oc2ccc(NC(=O)Nc3nc4ccc(Cl)cc4s3)cc2)ccn1 [Example 11]	> 40%
CNC(=O)c1cc(Oc2ccc(NC(=O)Nc3nc4ccc(OC(F)(F)F)cc4s3)cc2)ccn1 [Example 12]	> 40%
CNC(=O)c1cc(Oc2ccc(NC(=O)Nc3nc4ccc(F)cc4s3)cc2)ccn1 [Example 13]	> 40%
CNC(=O)c1cc(Oc2ccc(NC(=O)Nc3nc4ccc(OC)cc4s3)cc2)ccn1 [Example 14]	> 40%
CNC(=O)c1cc(Oc2ccc(NC(=O)Nc3ccc4[nH]c(C)cc4c3)cc2)ccn1 [Example 16]	> 40%
CNC(=O)c1cc(Oc2ccc(NC(=O)Nc3ccc4nccnc4c3)cc2)ccn1 [Example 17]	> 40%
CNC(=O)c1cc(Oc2ccc(NC(=O)Nc3ccc4c(c3)OC(F)(F)O4)cc2)ccn1 [Example 20]	> 40%
CNC(=O)c1cc(Oc2ccc(NC(=O)Nc3ccc4c(c3)CCC4=O)cc2)ccn1 [Example 22]	> 40%
CNC(=O)c1cc(Oc2ccc(NC(=O)Nc3ccc4cnn(C)c4c3)cc2)ccn1 [Example 24]	> 40%
CNC(=O)c1cc(Oc2ccc(NC(=O)Nc3ccc4[nH]nnc4c3)cc2)ccn1 [Example 26]	> 40%
CNC(=O)c1cc(Oc2ccc(NC(=O)Nc3ccc4cn[nH]c4c3)cc2)ccn1 [Example 27]	> 40%
CNC(=O)c1cc(Oc2ccc(NC(=O)Nc3ccc4[nH]c(C(F)(F)F)nc4c3)cc2)ccn1 [Example 28]	> 40%
CCn1c(C)nc2cc(NC(=O)Nc3ccc(Oc4ccnc(C(=O)NC)c4)cc3)ccc21 [Example 29]	> 40%
CNC(=O)c1cc(Oc2ccc(NC(=O)Nc3ccc4c(c3)CCN4S(C)(=O)=O)cc2)ccn1 [Example 31]	> 40%
CNC(=O)c1cc(Oc2cccc(NC(=O)Nc3ccc4[nH]nnc4c3)c2)ccn1 [Example 37]	> 40%
CCN(CC)CCn1ccc2cc(NC(=O)Nc3ccc(Oc4ccnc(C(=O)NC)c4)cc3F)ccc21 [Example 44]	> 40%
CCN(CC)CCn1ncc2cc(NC(=O)Nc3ccc(Oc4ccnc(C(=O)NC)c4)cc3F)ccc21 [Example 45]	> 40%
CNC(=O)c1cc(Oc2ccc(NC(=O)Nc3ccc4c(c3)OC(F)(F)C(F)(F)O4)c(C(F)(F)F)c2)ccn1 [Example 64]	> 40%

SMILES	inhibition at 1 µM
CNC(=O)c1cc(Oc2ccc(NC(=O)Nc3ccc4sc(C)nc4c3)c(C(F)(F)F)c2)ccn1 [Example 65]	> 40%
CNC(=O)c1cc(COc2ccc(NC(=O)Nc3ccc4c(cnn4C)c3)cc2)ccn1 [Example 88]	> 40%
CNC(=O)c1cc(COc2cccc(NC(=O)Nc3ccc4c(cnn4C)c3)c2)ccn1 [Example 89]	> 40%
Cc1nc2cc(NC(=O)Nc3ccc(Oc4ccnc(C(N)=O)c4)cc3)ccc2s1 [Example 91]	> 40%
NC(=O)c1cc(Oc2ccc(NC(=O)Nc3ccc4c(c3)CCC4)c(Cl)c2)ccn1 [Example 95]	> 40%
COC(=O)c1cc(Oc2ccc(NC(=O)Nc3ccc4c(cnn4C)c3)cc2)ccn1 [Example 98]	> 40%
COCCNC(=O)c1cc(Oc2ccc(NC(=O)Nc3ccc4c(cnn4C)c3)c(F)c2)ccn1 [Example 99]	> 40%
CN(C)C(=O)CNC(=O)c1cc(Oc2ccc(NC(=O)Nc3ccc4c(cnn4C)c3)cc2)ccn1 [Example 100]	> 40%
CNC(=O)c1cc(Oc2ccc(NC(=O)Nc3nc4ccc([N+](=O)[O-])cc4s3)cc2)ccn1 [Example 102]	> 40%
CNC(=O)c1cc(Oc2ccc(NC(=O)Nc3nc4c(F)cc(F)cc4s3)cc2)ccn1 [Example 103]	> 40%
COC(=O)c1cc(Oc2cccc(NC(=O)Nc3ccc4c(c3)C(F)(F)OC(F)(F)O4)c2)ccn1 [Example 105, Methyl 4-[3-({[(2,2,4,4-tetrafluoro-4H-1,3-benzodioxin-6-yl)amino]-carbonyl}amino)phenoxy]pyridine-2-carboxylate]	> 40%
CNC(=O)c1cc(Oc2cccc(NC(=O)Nc3ccc4[nH]ncc4c3)c2)ccn1 [Example 108, 4-(3-{[(1H-indazol-5-ylamino)carbonyl]amino}phenoxy)-N-methylpyridine-2-carboxamide dihydrochloride]	> 40%
CNC(=O)c1cc(Oc2ccc(NC(=O)Nc3ccc4c(c3)C(F)(F)OC(F)(F)O4)cc2Cl)ccn1 [Example 115]	> 40%
CNC(=O)c1cc(Oc2cccc(NC(=O)Nc3ccc4c(c3)C(F)(F)OC(F)(F)O4)c2)ccn1 [Example 117]	> 40%
COC(=O)c1cncc(Oc2ccc(NC(=O)Nc3ccc4c(c3)C(F)(F)OC(F)(F)O4)cc2)c1 [Example 122]	> 40%
CNC(=O)c1cc(Oc2ccc(NC(=O)Nc3cccc4c3OC(F)(F)C(F)(F)O4)cc2)ccn1 [Example 132]	> 40%
CNC(=O)c1cc(Oc2ccc(NC(=O)Nc3ccc4c(c3)OCO4)cc2)ccn1 [Example 135]	> 40%
O=C(Nc1ccc(Oc2ccnc(C(=O)NCCCn3ccnc3)c2)cc1)Nc1ccc2c(c1)C(F)(F)OC(F)(F)O2 [Example 145, N-[3-(1H-imidazol-1-yl)propyl]-4-[4-({[(2,2,4,4-tetrafluoro-4H-1,3-benzodioxin-6-yl)amino]carbonyl}amino)phenoxy]pyridine-2-carboxamide]	> 40%
O=C(Nc1ccc(Oc2ccnc(C(=O)NCCN3CCCC3)c2)cc1)Nc1ccc2c(c1)C(F)(F)OC(F)(F)O2 [Example 146, N-(2-pyrrolidin-1-ylethyl)4-[4-({[(2,2,4,4-tetrafluoro-4H-1,3-benzodioxin-6-yl)-amino]carbonyl}amino)phenoxy]pyridine-2-carboxamide]	> 40%
Cn1ncc2cc(NC(=O)Nc3ccc(Oc4ccnc(C(=O)NC5CC5)c4)cc3)ccc21 [Example 147, N-cyclopropyl-4-[4-({[(1-methyl-1H-indazol-5-yl)amino]-carbonyl}amino)phenoxy]pyridine-2-carboxamide]	> 40%
Cn1ncc2cc(NC(=O)Nc3cccc(Oc4ccnc(C(=O)NCCN5CCCCC5)c4)c3)ccc21 [Example 148, 4-[3-({[(1-methyl-1H-indazol-5-yl)amino]carbonyl}amino)phenoxy]-N-(2-piperidin-1-ylethyl)pyridine-2-carboxamide]	> 40%
NC(=O)c1cc(Oc2cc(F)c(NC(=O)Nc3ccc4c(c3)C(F)(F)OC(F)(F)O4)c(F)c2)ccn1 [Example 150, 4-[3,5-difluoro-4-({[(2,2,4,4-tetrafluoro-4H-1,3-benzodioxin-6-yl)amino]-carbonyl}amino)phenoxy]pyridine-2-carboxamide]	> 40%
O=C(Nc1ccc(Oc2ccnc(C(=O)NCCN3CCCCC3)c2)cc1)Nc1ccc2c(c1)C(F)(F)OC(F)(F)O2 [Example 153]	> 40%
O=C(Nc1ccc(Oc2ccnc(C(=O)Nc3ccccn3)c2)cc1)Nc1ccc2c(c1)C(F)(F)OC(F)(F)O2 [Example 155]	> 40%
